Results from patent US8048879B2, “Substituted 4,5,6,7-tetrahydro-isoxazolo[4,5-c]pyridine compounds and use thereof for producing medicaments” (Gruenenthal GmbH, priority 2005, dated 2011).

Biological target: T1, 5-HT transporter (Rattus norvegicus, UniProt P31652)
T1 construct: from tissue; host or cells: rat brain (medulla and pons), synaptosomes, P2 fraction
Experiment: 5-HT uptake inhibition, synaptosomes from rat brain (medulla and pons)
Format: biochemical
Description: b) Method for Determining Noradrenalin and 5-HT Uptake Inhibition:
Synaptosomes from rat brain regions are freshly isolated for in vitro studies, as described in the publication “The isolation of nerve endings from brain” by E. G. Gray and V. P. Whittaker, J. Anatomy 96, pages 79-88, 1962. The corresponding literature description is hereby introduced as a reference and is deemed to be part of the disclosure.
The tissue (hypothalamus for the determination of noradrenalin uptake inhibition and medulla and pons for the determination of 5-HT uptake inhibition) is homogenised in ice-cooled 0.32 M sucrose (100 mg of tissue/1 mL) in a glass homogeniser with Teflon pestle using five complete up and down strokes at 840 revolutions/minute.
The homogenate is centrifuged at 4° C. for 10 minutes at 1000 g. After subsequent centrifugation at 17000 g for 55 minutes, the synaptosomes (P2 fraction) are obtained, which are resuspended in 0.32 M […] (0.5 mL/100 mg of original weight).
The particular uptake is measured in a 96-well microtitre plate. The volume is 250 μL and the incubation proceeds at room temperature (approx. 20-25° C.) under an O2 atmosphere.
The incubation time is 7.5 minutes for [^3H]-NA and 5 minutes for [^3H]-5-HT. The 96 samples are then filtered through a Unifilter GF/B® microtitre plate (Packard) and washed with 200 mL of incubated buffer using a “Brabdel MPXRI-96T Cell-Harvester”. The Unifilter GF/B plate is dried for 1 hour at 55° C. The plate is then sealed with a Back Seal® (Packard) and 35 μL of scintillation fluid are added per well (Ultima Gold®, Packard). After sealing with a top Seal® (Packard) and establishing an equilibrium (around 5 hours), radioactivity is determined in a “Trilux 1450 Microbeta” (Wallac).
The quantity of protein used in the above determination corresponds to the values known from the literature, as for example described in “Protein measurement with the folin phenol reagent”, Lowry et al., J. Biol. Chem., 193, 265-275, 1951.
A detailed description of the method may additionally be found in the literature, for example in M. Ch. Frink, H.-H. Hennies, W. Engelberger, M. Haurand and B. Wilffert (1996) Arzneim.-Forsch./Drug Res. 46 (III), 11, 1029-1036.
The following characteristics were determined for the NA or 5-HT transporter: […]

T1 sequence (P31652 whole entry): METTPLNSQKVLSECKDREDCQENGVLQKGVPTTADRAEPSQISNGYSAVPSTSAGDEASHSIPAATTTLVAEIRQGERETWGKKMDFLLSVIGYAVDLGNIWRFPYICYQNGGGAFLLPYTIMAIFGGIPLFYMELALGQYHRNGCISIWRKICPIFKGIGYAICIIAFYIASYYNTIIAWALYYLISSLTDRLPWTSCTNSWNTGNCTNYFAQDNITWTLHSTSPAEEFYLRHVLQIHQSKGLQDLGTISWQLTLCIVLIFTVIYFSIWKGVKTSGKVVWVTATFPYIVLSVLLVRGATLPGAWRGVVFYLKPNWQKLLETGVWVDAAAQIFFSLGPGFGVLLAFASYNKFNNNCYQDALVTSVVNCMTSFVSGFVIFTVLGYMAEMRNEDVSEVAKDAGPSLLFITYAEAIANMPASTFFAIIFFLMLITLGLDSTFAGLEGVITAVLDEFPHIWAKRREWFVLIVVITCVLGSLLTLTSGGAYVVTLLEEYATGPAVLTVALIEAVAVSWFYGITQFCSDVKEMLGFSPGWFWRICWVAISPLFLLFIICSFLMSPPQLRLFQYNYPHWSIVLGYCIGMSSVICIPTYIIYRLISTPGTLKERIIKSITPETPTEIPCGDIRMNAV

| Compound | 5-HT uptake (rat), 10 μM, % inhibition | inhibition at 10 µM |
| --- | --- | --- |
| COCCNC(=O)c1noc2c1CN(C(=O)Nc1cccc(OC)c1)CC2 [Example 1, 6,7-dihydro-4H-isoxazolo[4,5-c]pyridine-3,5-dicarboxylic acid 3-[(2-methoxy-ethyl) amide] 5-[(3-methoxyphenyl) amide]] | 47% |  |
| O=C(NC1CCCC1)c1noc2c1CN(C(=O)NCc1ccc(F)cc1)CC2 [Example 2, 6,7-dihydro-4H-isoxazolo[4,5-c]pyridine-3,5-dicarboxylic acid 3-cyclopentyl amide 5-(4-fluorobenzyl amide)] | 41% |  |
| O=C(Nc1ccccc1)c1noc2c1CN(C(=O)Nc1ccc(OC(F)(F)F)cc1)CC2 [Example 3, 6,7-dihydro-4H-isoxazolo[4,5-c]pyridine-3,5-dicarboxylic acid 3-phenyl amide 5-[(4-trifluoromethoxy-phenyl) amide]] | 45% |  |
| COCCNC(=O)c1noc2c1CN(C(=O)Nc1ccc(C)c([N+](=O)[O-])c1)CC2 [Example 5, 6,7-dihydro-4H-isoxazolo[4,5-c]pyridine-3,5-dicarboxylic acid 3-[(2-methoxy-ethyl) amide]5-[(4-methyl-3-nitro-phenyl) amide]] | 47% |  |
| CCOC(=O)CCNC(=O)c1noc2c1CN(C(=O)Nc1cc(F)ccc1F)CC2 [Example 6] | 43% |  |
| CCCCOc1ccc(NC(=O)N2CCc3onc(C(=O)NCCOC)c3C2)cc1 [Example 7, 6,7-dihydro-4H-isoxazolo[4,5-c]pyridine-3,5-dicarboxylic acid 5-[(4-butoxy-phenyl) amide] 3-[(2-methoxy-ethyl) amide]] | 44% |  |
| Cc1ccc(NC(=O)N2CCc3onc(C(=O)NCc4cccs4)c3C2)cc1[N+](=O)[O-] [Example 9, 6,7-dihydro-4H-isoxazolo[4,5-c]pyridine-3,5-dicarboxylic acid 5-[(4-methyl-3-nitro-phenyl) amide] 3-[(thiophen-2-ylmethyl) amide]] | 45% |  |
| CCSCCNC(=O)c1noc2c1CN(C(=O)Nc1cccc(OC)c1)CC2 [Example 11, 6,7-dihydro-4H-isoxazolo[4,5-c]pyridine-3,5-dicarboxylic acid 3-[(2-ethylsulfanyl-ethyl) amide]5-[(3-methoxyphenyl) amide]] | 54% |  |
| Cc1ccc(NC(=O)N2CCc3onc(C(=O)NCc4ccc(F)cc4)c3C2)cc1[N+](=O)[O-] [Example 14, 6,7-dihydro-4H-isoxazolo[4,5-c]pyridine-3,5-dicarboxylic acid 3-(4-fluorobenzyl amide) 5-[(4-methyl-3-nitro-phenyl) amide]] | 53% |  |
| CC(=O)c1cccc(NC(=O)N2CCc3onc(C(=O)NCc4ccc(C)o4)c3C2)c1 [Example 15, 6,7-dihydro-4H-isoxazolo[4,5-c]pyridine-3,5-dicarboxylic acid 5-[(3-acetyl-phenyl) amide] 3-[(5-methyl-furan-2-ylmethyl) amide]] | 58% |  |
| C#CCNC(=O)c1noc2c1CN(C(=O)Nc1ccc(C)c([N+](=O)[O-])c1)CC2 [Example 16, 6,7-dihydro-4H-isoxazolo[4,5-c]pyridine-3,5-dicarboxylic acid 5-[(4-methyl-3-nitro-phenyl) amide]3-prop-2-ynyl amide] | 55% |  |
| O=C(NCc1ccccc1)c1noc2c1CN(C(=O)Nc1ccccc1)CC2 [Example 17, 6,7-dihydro-4H-isoxazolo[4,5-c]pyridine-3,5-dicarboxylic acid 3-benzyl amide 5-phenyl amide] | 64% |  |
| C#CCNC(=O)c1noc2c1CN(C(=O)Nc1cccc(F)c1)CC2 [Example 19, 6,7-dihydro-4H-isoxazolo[4,5-c]pyridine-3,5-dicarboxylic acid 5-[(3-fluorophenyl) amide] 3-prop-2-ynyl amide] | 50% |  |
| CCOC(=O)CCNC(=O)c1noc2c1CN(C(=O)Nc1cc(OC)ccc1OC)CC2 [Example 20, 3-{[5-(2,5-dimethoxy-phenylcarbamoyl)-4,5,6,7-tetrahydro-isoxazolo[4,5-c]pyridine-3-carbonyl]-amino}-propionic acid ethyl ester] |  | 51% |
| CCOc1ccc(NC(=O)N2CCc3onc(C(=O)NCc4ccc(F)cc4)c3C2)cc1 [Example 21, 6,7-dihydro-4H-isoxazolo[4,5-c]pyridine-3,5-dicarboxylic acid 5-[(4-ethoxy-phenyl) amide] 3-(4-fluorobenzyl amide)] | 56% |  |
| COc1ccc(Cl)cc1NC(=O)N1CCc2onc(C(=O)NCCc3ccccc3)c2C1 [Example 22, 6,7-dihydro-4H-isoxazolo[4,5-c]pyridine-3,5-dicarboxylic acid 5-[(5-chloro-2-methoxyphenyl) amide] 3-(phenethyl amide)] | 60% |  |
| CCOC(=O)c1cccc(NC(=O)N2CCc3onc(C(=O)NCc4ccc(C)o4)c3C2)c1 [Example 23, 3-({3-[(5-methyl-furan-2-ylmethyl)-carbamoyl]-6,7-dihydro-4H-isoxazolo[4 5-c]pyridine-5-carbonyl}-amino)-benzoic acid ethyl ester] | 52% |  |
| CCC(C)(CC(=O)O)CC(=O)N1CCc2onc(C(=O)NCCOC)c2C1 (stereo not drawn) [Example 26, 3-ethyl-5-[3-(2-methoxy-ethylcarbamoyl)-6,7-dihydro-4H-isoxazolo[4,5-c]pyridin-5-yl]-3-methyl-5-oxo-pentanoic acid] |  | 54% |
| CC(C)(C)OC(=O)NC(COCc1ccccc1)C(=O)N1CCc2onc(C(=O)NCc3cccnc3)c2C1 (stereo not drawn) [Example 27, (1-benzyloxymethyl-2-oxo-2-{3-[(pyridin-3-ylmethyl)-carbamoyl]-6,7-dihydro-4H-isoxazolo[4,5-c]pyridin-5-yl}-ethyl)-carbamic acid tert-butyl ester] |  | 41% |
| O=C(O)COCC(=O)N1CCc2onc(C(=O)NCc3cccs3)c2C1 [Example 30, (2-oxo-2-{3-[(thiophen-2-ylmethyl)-carbamoyl]-6,7-dihydro-4H-isoxazolo[4,5-c]pyridin-5-yl}-ethoxy)acetic acid] |  | 57% |
| Cc1ccc(CNC(=O)c2noc3c2CN(C(=O)C(C)(C)CC(=O)O)CC3)o1 [Example 31, 3,3-dimethyl-4-{3-[(5-methyl-furan-2-ylmethyl)-carbamoyl]-6,7-dihydro-4H-isoxazolo[4,5-c]pyridin-5-yl}-4-oxo-butanoic acid] |  | 57% |
| O=C(c1noc2c1CN(S(=O)(=O)c1ccc(F)cc1)CC2)N1CCN(c2ncnc3sccc23)CC1 [Example 34] | 74% |  |
| CN(C)CCNC(=O)c1noc2c1CN(C(=O)C=Cc1ccccc1)CC2 [Example 36, 5-(3-phenyl-acryloyl)-4,5,6,7-tetrahydro-isoxazolo[4,5-c]pyridine-3-carboxylic acid (2-dimethylamino-ethyl) amide] |  | 72% |
| CN(C)CCNC(=O)c1noc2c1CN(C(=O)COc1ccccc1)CC2 [Example 37, 5-(2-phenoxy-acetyl)-4,5,6,7-tetrahydro-isoxazolo[4,5-c]pyridine-3-carboxylic acid (2-dimethylamino-ethyl) amide] |  | 61% |
